Literature values as cited in the PKSmart pharmacokinetics tables (Seal et al. 2025).

Legend:
[1] = Lombardo et al. 2013, J Clin Pharmacol 53:178, doi 10.1177/0091270012440282; conditions: for Vd / clearance: in vivo, iv; for fraction unbound: plasma
[2] = Lombardo, Berellini, Obach 2018, Drug Metab Dispos 46:1466, doi 10.1124/dmd.118.082966; conditions: human; for MRT / Vd / half-life / clearance: in vivo, iv; for fraction unbound: plasma

SMILES | Vd ([1]; rat) | MRT [2] | Vd [2] | half-life [2] | Vd ([1]; dog) | clearance ([1]; dog) | Vd ([1]; monkey) | clearance ([1]; monkey) | clearance ([1]; rat) | clearance [2] | fraction unbound [2] | fraction unbound ([1]; dog) | fraction unbound ([1]; rat) | fraction unbound ([1]; monkey)
Cc1nnc2n1-c1ccc(Cl)cc1C(c1ccccc1Cl)=NC2 | 3.4 L/kg | 3.2 h | 0.58 L/kg | 2.7 h |  |  |  |  |  |  |  |  |  | 
Cn1c(=O)c2c(ncn2C)n(C)c1=O | 0.92 L/kg | 7.5 h | 0.63 L/kg | 4.9 h | 0.76 L/kg | 2.35 mL/min/kg | 0.83 L/kg | 3.06 mL/min/kg | 12.5 mL/min/kg | 1.4 mL/min/kg |  |  |  | 
CC[C@@]1(O)CC(=O)OCc2c1cc1n(c2=O)Cc2cc3cc(F)c(F)cc3nc2-1 | 2 L/kg | 3.87 h | 1.42 L/kg | 3.1 h | 2.1 L/kg | 21.5 mL/min/kg |  |  | 23 mL/min/kg | 8.42 mL/min/kg | 0.126 |  |  | 
CCCCCN(CCCOC)C(=O)C(CCC(=O)O)NC(=O)c1ccc(Cl)c(Cl)c1 (stereo not given) | 0.98 L/kg | 2.4 h | 0.21 L/kg | 3.2 h | 0.34 L/kg | 30.7 mL/min/kg |  |  | 6.01 mL/min/kg | 2.35 mL/min/kg |  | 0.021 | 0.0093 | 
CC(C)Oc1ccccc1N1CCN(Cc2cccc(C(=O)N3CCCCC3)c2)CC1 | 1.73 L/kg | 4.2 h | 1.54 L/kg | 4.6 h |  |  |  |  | 39.2 mL/min/kg | 6.17 mL/min/kg |  |  | 0.03 | 
NC(C(=O)O)[C@@H]1CC(Cl)=NO1 (stereo not given in full) | 0.74 L/kg | 12 h | 0.5 L/kg | 9.9 h | 0.58 L/kg | 1.4 mL/min/kg | 0.61 L/kg | 2.3 mL/min/kg | 6.4 mL/min/kg | 0.69 mL/min/kg |  |  |  | 
C[C@]12CC[C@@H]3c4ccc(OC(=O)N(CCCl)CCCl)cc4CC[C@H]3[C@@H]1CC[C@@H]2OP(=O)(O)O |  | 2.1 h | 0.12 L/kg | 2.4 h | 0.16 L/kg | 2 mL/min/kg |  |  |  | 0.94 mL/min/kg | 0.5 |  |  | 
CCOc1ccccc1OCCN[C@H](C)Cc1ccc(OC)c(S(N)(=O)=O)c1 | 3.25 L/kg | 5.6 h | 0.21 L/kg | 6.8 h | 1.74 L/kg | 19.3 mL/min/kg |  |  | 82.2 mL/min/kg | 0.62 mL/min/kg |  | 0.1 | 0.24 | 
CCC#CC[C@H](C)[C@H](O)C#C[C@@H]1[C@H]2C/C(=C/COCC(=O)O)C[C@H]2C[C@H]1O | 1 L/kg | 0.35 h | 0.08 L/kg | 1.1 h |  |  | 1.2 L/kg | 14.3 mL/min/kg | 49 mL/min/kg | 3.8 mL/min/kg |  |  |  | 
CC1(C)S[C@@H]2C(NC(=O)C(N)c3ccccc3)C(=O)N2C1C(=O)O (stereo not given in full) | 1.1 L/kg | 1.3 h | 0.22 L/kg | 1.4 h | 0.58 L/kg | 9.1 mL/min/kg |  |  | 19 mL/min/kg | 2.8 mL/min/kg |  | 0.58 | 0.6 | 
C#C[C@]1(OS(=O)(=O)O)CC[C@H]2[C@@H]3CCc4cc(O)ccc4[C@H]3CC[C@@]21C |  | 7.8 h | 0.61 L/kg | 9.3 h |  |  | 8.7 L/kg | 13 mL/min/kg |  | 1.3 mL/min/kg |  |  |  | 
Nc1ncnc2c1ncn2CCOCP(=O)(O)O | 1.6 L/kg | 1.9 h | 0.42 L/kg | 1.6 h | 1.3 L/kg | 5.3 mL/min/kg | 0.81 L/kg | 16 mL/min/kg | 22 mL/min/kg | 3.7 mL/min/kg |  |  |  | 
CC1=NC(=O)[C@](CCN(C(C)C)C(C)C)(c2ccccc2)[C@H]2CCCCN12 | 4.2 L/kg | 1.58 h | 0.58 L/kg | 1.89 h | 1.3 L/kg | 12 mL/min/kg | 1.6 L/kg | 20 mL/min/kg | 48 mL/min/kg | 6.79 mL/min/kg | 0.7 | 0.618 | 0.63 | 0.656
